Tests used:
[1] = tested on: bowel and VAT immune cell populations; assay: Immune cell populations in NCD vs NCD 5-ASA mice; format: in vivo; conditions: bowels or VATs, NCD 5-ASA vs untreated NCD mice
Description: Isolation of bowel immune cells. For isolation of small intestine lamina propria immune cells, we used the protocol described by Fritz et al (Fritz et al., 2012), and processed approximately 10 cm from the distal end of the small intestine (jejunum and ileum). For the isolation of colonic lamina propria immune cells, we used the protocol described by Geddes et al (Geddes et al., 2011). Following lamina propria isolations, we passed immune cells through 70 μm strainers, and used them for flow cytometry.
We isolated VAT-associated immune cells as previously described (Winer et al., 2009a).
We stained single cell suspensions for 30 min on ice with commercial antibodies. Flow cytometry antibodies including CD45.2 (104), CD3 (145-2C11), CD4 (GK1.5), CD8 (53-6.7), CD25 (PC61), γδTcR (GL3), Foxp3 (150D), IL-17 (TC11-18H10.1), IFNγ XMG1.2), α4β7 (DATK32), CCR9 (CW-1.2), CD11b (M1/70), F4/80 (BM8), CD11c (N418), CD206 (C068C2), Gr-1 (RB6-8C5), IL-7Rα (A7R34), B220 (RA3-6B2), Thy1.2 (30-H12), NKp46 (29A1.4), and Sca-1 (D7) were purchased from Biolegend. Intracellular staining was performed using a Foxp3 staining buffer kit (eBioscience). We acquired data on a Fortessa flow cytometer (BD Biosciences) and analyzed it with FlowJo software (Tree Star). We gated ILCs as described (Kirchberger et al., 2013).

[2] = tested on: intestinal epithelial barrier; assay: Gut permeability assay (FD4); format: in vivo, mice; conditions: HFD vs HFD 5-ASA, 12-16 weeks of diet, 4 hours after gavage
Procedure: We measured gut permeability in overnight fasted mice 4 hours after oral gavage with 0.4 mg/g of FITC-conjugated dextran (Sigma) as described (Dong et al., 2014).

HFD-fed C57BL/6 mice = assay: Food intake and metabolic cage studies, HFD or HFD 5-ASA; format: in vivo; conditions: HFD vs HFD 5-ASA, 14 weeks
Procedure: Mice. Mice were fed either NCD (15 kcal % fat) or HFD (Research Diets, 60 kcal % fat, irradiated) starting at 6 weeks of age. All studies were performed under the approval of Animal User Protocols by the Animal Care Committee at the University Health Network. Mice were maintained in a pathogen-free, temperature-controlled environment on a 12-hour light and dark cycle. All mice used in comparative studies were male, age-matched, and litter mates where possible. […] We confirmed T cell-specific floxing of the PPARγ gene in Lck-Cre+ PPARγfl/fl mice by qPCR with a minimum of at least 90% reduction in PPARγ expression. […] We placed mice in automated metabolic cages (Oxymax Systems, Columbus Instruments) for 48 hours with airflow held constant at 0.5 L/min. (Revelo et al., 2014). […] We measured metabolic activity using indirect calorimetry, recording maximal O2 consumption (VO2), CO2 production (VCO2), and heat production normalized to body weight. Respiratory exchange ratio (RER) was calculated as […]. The data shown are calculated for light and dark measurements as an average over 24 hours by combining light and dark measurements. Ambulatory activity was measured by the breaking of infrared laser beams in the XY plane.

small bowel T cells = assay: In vitro IFNγ secretion, anti-CD3/CD28-activated small bowel T cells; format: cell-based; conditions: T cells from HFD-fed WT mice, 72 hour; 5-ASA 0.1 mM; rosiglitazone 0.1, 1 and 10 μM
Procedure: (§1) To measure the effect of IFNγ on tight-junction gene expression, we treated MODE-K cells with recombinant mouse IFNγ (Biolegend). We purified bulk dendritic cells and T cells from murine small bowels and spleens using a negative selection DC or T cell isolation kit (Stem Cell Technologies). We plated T cells at 5×10^5 cells/well with plate-bound anti-CD3/CD28 (1 μg/ml, Biolegend). […] We collected supernatants for cytokine measurements after 72 hour incubation. […] After 24 hours, we washed the cells with PBS and co-cultured them (1×10^4 cells/well) with OVA323-339 peptide and OT-II splenic or small bowel T cells (5×10^4 cells/well) for 48 hours. Supernatants were collected at 48 hours for cytokine measurement. We measured serum cytokines by Luminex Multiplex cytokine assay (Millipore, run by the UHN Microarray Center), and quantified IL-10 and IFN-γ in supernatants of anti-CD3/CD28-stimulated splenocytes or bowel immune cells (Winer et al., 2009b) by ELISA (Biolegend).

gut bacteria = assay: Gut microbiome sequencing; format: in vivo; conditions: HFD 5-ASA-fed mice
Procedure: We amplified the V4 hypervariable region of the 16S rRNA gene using a universal forward sequencing primer and a uniquely barcoded reverse sequencing primer to allow for multiplexing (Caporaso et al., 2012). Primers contained an adapter sequence to bind the amplicons to the Illumina flow cell. PCR-based library construction was performed in triplicate 25 μl solutions containing 1×KAP[…] Robust HotStart ReadyMix, 600 nM each of primer, and 1 μl of DNA template. For every PCR reaction sterile dH2O was used as a negative control to ensure no contaminating DNA was present. PCR conditions were 95° C. for 3 min, followed by 18 cycles of 95° C. for 15 s, 58° C. for 15 s, 72° C. for 15 s and were completed at 72° C. for 5 min. All PCR reactions were run on a 1% agarose gel to visualize the amplification and approximate DNA quantity. Individual barcoded samples from the triplicates were pooled by approximately even concentrations to create the final library. The final library was purified using 0.8 volumes of Agencourt AMPure XP beads (Beckman Coulter, Indianapolis, Ind.) according to the manufacturer's protocol and quantified using the Qubit Fluorometer. The final library was prepared according to the MiSeq user guide, diluted to a concentration of 7 pM and combined with a 5% PhiX control. Sequencing was performed using the V2 (150 bp×2) chemistry and sequenced on the Illumina MiSeq (Illumina, San Diego, Calif.).

splenic T cells = assay: In vitro IFNγ secretion, anti-CD3/CD28-activated splenic T cells; format: cell-based; conditions: splenic T cells from HFD-fed WT mice, 72 hour; 5-ASA 0.1 mM
Procedure: as §1

[3] = HPLC of 5-ASA in serum and tissues with internal 4-ASA standard; format: in vivo, mice; conditions: mouse, colon and small bowel relative to serum, oral
Procedure: We cut frozen tissues and homogenized them in 80% methanol (30 mg/mL) on ice. We spiked 100 μL aliquots with 4-ASA used as internal standard (200 ng), and 400 μL 80% methanol were added. For plasma, we thawed samples from −80° C. at room temperature. 75 μL plasma were spiked with 4-ASA used as internal standard (200 ng) and mixed with 300 μL of methanol for 5 minutes (vortex). Samples were centrifuged (20,000×g, 15 minutes, 4° C.). Supernatants were separated from the pellets and taken to dryness under nitrogen gas in the fumehood. We then reconstituted the dry residues in 200 μL of mobile phase, vortexed for 1 minute and centrifuged at 20,000×g for 15 minutes. The supernatants were transferred to autosampler vials fitted with inserts and sealed caps. Aliquots of the solution were injected into HPLC for analysis.
We performed high performance liquid chromatography using a Dionex Ultimate 3000 system equipped with a binary pump, a built-in autosampler, a photodiode array and a RF 2000 fluorescence detector. […] The analytes were monitored by fluorescence (excitation: 337 nm and emission: 432 nm) and by (UV235 nm). We analyzed the chromatograms produced using Chromeleon version 6.8 software.

Nc1ccc(O)c(C(=O)O)c1 [5-ASA, 5-aminosalicylic acid]
significant anti-inflammatory effects on immune cell populations [1]: not seen | intestinal epithelial barrier permeability (plasma FD4) [2]: significant improvements | carbon dioxide output (HFD-fed C57BL/6 mice): no difference | food intake (HFD-fed C57BL/6 mice): no difference | oxygen consumption (HFD-fed C57BL/6 mice): no difference | IFNγ production (small bowel T cells): significantly reduced | Clostridiales (gut bacteria): increased | Firmicutes (gut bacteria): increased | abundance of Ruminococcaceae (gut bacteria): increased | bacterial diversity (gut bacteria): increased | IFNγ production (splenic T cells): not | Kp [3]: ~20

From patent US20180193361A1, “GUT ANTI-INFLAMMATORY AGENTS FOR REGULATION OF HIGH BLOOD GLUCOSE LEVELS” (UNIVERSITY HEALTH NETWORK, priority 2015, published 2018)
